Measurements reported in PubChem BioAssay (NCI).
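Briefly, cells in 96-well plates were exposed to five compound concentrations for 48 h, and endpoints were estimated by linear interpolation. At the GI50, growth is halved. TGI marks complete inhibition of growth.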

What was measured:
Assay in all cases: NCI anticancer screen, dose series, 48 h
M14 melanoma = system: M14 melanoma
MOLT-4 leukemia = system: MOLT-4 leukemia
OVCAR-5 ovarian = system: OVCAR-5 ovarian
SF-539 CNS = system: SF-539 CNS
SK-MEL-28 melanoma = system: SK-MEL-28 melanoma
SK-OV-3 ovarian = system: SK-OV-3 ovarian
SNB-75 CNS = system: SNB-75 CNS
U251 CNS = system: U251 CNS
UO-31 renal = system: UO-31 renal
HCT-116 colon = system: HCT-116 colon

Row | Structure (SMILES) | TGI (M14 melanoma) [µM] | TGI (MOLT-4 leukemia) [µM] | TGI (OVCAR-5 ovarian) [µM] | TGI (SF-539 CNS) [µM] | TGI (SK-MEL-28 melanoma) [µM] | TGI (SK-OV-3 ovarian) [µM] | TGI (SNB-75 CNS) [µM] | TGI (U251 CNS) [µM] | TGI (UO-31 renal) [µM] | TGI (HCT-116 colon) [µM] | GI50 (HCT-116 colon) [µM] | GI50 (M14 melanoma) [µM] | GI50 (MOLT-4 leukemia) [µM] | GI50 (OVCAR-5 ovarian) [µM] | GI50 (SF-539 CNS) [µM] | GI50 (SK-MEL-28 melanoma) [µM] | GI50 (SNB-75 CNS) [µM] | GI50 (U251 CNS) [µM] | GI50 (UO-31 renal) [µM] | GI50 (SK-OV-3 ovarian) [µM]
1 | Cn1ncc2c(=O)[nH]c(-c3ccccc3)nc21 | > 100 | > 100 | > 100 | > 100 | > 100 | > 100 | > 100 | > 100 | > 100 |  |  |  |  |  |  |  |  |  |  | 
2 | CCc1cc(C)cc2[n+]1CC=C2C | > 100 |  | > 100 | > 100 | > 100 |  | > 100 | > 100 | > 100 |  |  |  |  |  |  |  |  |  |  | 
3 | N=C(N)SC(c1ccccc1)c1ccccc1 | 23.7 | 56.6 | 32.2 | 37.7 | 18.6 | > 100 |  | 29.4 | 23.2 | 24.6 |  |  |  |  |  |  |  |  |  | 
4 | O=C(Nc1ccc(-n2ccc3c(NC(=O)c4ccccc4)ncnc32)cc1)Nc1ccc(Cl)c(C(F)(F)F)c1 | 3.64 | 4.82 | 3.89 | 3.9 | 4.46 |  | 8.08 | 2.55 | 4.73 | 2.96 | 1.47 | 1.66 | 1.87 | 1.66 | 0.654 | 1.93 | 1.67 | 1.2 | 2.04 | 
5 | O=C1CC(c2ccccc2)NCCCCN2CC(CN1)C(C(O)c1ccccc1)C2=O (centres undefined) | > 100 | > 100 | > 100 | > 100 | > 100 | > 100 | > 100 | > 100 | > 100 | > 100 |  |  |  |  |  |  |  |  |  | 
6 | NS(=O)(=O)c1ccc(C(=O)O)cc1 | > 100 | > 100 | > 100 |  | > 100 | > 100 |  | > 100 | > 100 | > 100 |  |  |  |  |  |  |  |  |  | 
7 | COc1ccc2c(c1)C(=O)c1c-2n(CCCCl)c(=O)c2cc([N+](=O)[O-])ccc12 | 0.361 |  | > 26.4 | 0.456 | > 100 | > 100 | > 100 | 0.476 |  | 0.737 |  |  | < 0.0211 | 1.26 | 0.11 | 2.64 |  | < 0.01 |  | 0.569
8 | COc1cc2c(cc1OCCCOc1cc3c(cc1OC)C(=O)N1CC(F)(F)C[C@H]1C=N3)N=C[C@@H]1CC(F)(F)CN1C2=O | 3.7 | 1.72 | 8.99 | 2.72 | 5.47 | > 30.3 | 18.4 | 11.4 | > 33.1 | 2.25 | 0.415 | 0.698 | 0.0383 | 1.74 | 0.165 | 1.95 | 1.58 | 0.166 | 1.24 | 1.02
9 | Cc1cccc(NC(N)=S)c1 | > 100 | > 100 | > 100 | > 100 | > 100 | > 100 | > 100 | > 100 | > 100 | > 100 |  |  |  |  |  |  |  |  |  | 
10 | CC(C)(c1ccccc1)c1ccc(Oc2ccc3c(c2)-c2nc-3nc3[nH]c(nc4nc(nc5[nH]c(n2)c2ccc(Oc6ccc(C(C)(C)c7ccccc7)cc6)cc52)-c2cc(Oc5ccc(C(C)(C)c6ccccc6)cc5)ccc2-4)c2ccc(Oc4ccc(C(C)(C)c5ccccc5)cc4)cc32)cc1 | > 100 | > 100 | > 100 | > 100 | > 100 | > 100 | 67.8 | > 100 | > 100 | > 100 |  |  |  |  |  |  |  |  |  | 
11 | Nc1ccc([As](=O)(O)O)cc1 | > 100 | > 100 | > 100 | > 100 | > 100 | > 100 | > 100 | > 100 | > 100 | > 100 |  |  |  |  |  |  |  |  |  | 
12 | Cc1cc(N2CCCCC2)nc(NCc2cc(Nc3ccnc4cc(Cl)ccc34)ccc2F)n1 | 3.69 | 4.82 |  | 3.04 |  | 3.48 | 2.83 | 3.15 | 3.13 | 3.5 | 1.64 | 1.92 | 1.67 |  | 1.58 |  | 1.39 | 1.71 | 1.61 | 1.93
13 | Cc1nc2ccccc2c(=O)n1Nc1ccc(C(=O)O)cc1 |  | > 100 | > 100 | > 100 | > 100 | > 100 | > 100 | > 100 | > 100 | > 100 |  |  |  |  |  |  |  |  |  | 
14 | CN(C)C=O.CN(C)C=O.CN1C(C(=O)Nc2ccccn2)=C([O-])c2ccccc2S1(=O)=O.CN1C(C(=O)Nc2ccccn2)=C([O-])c2ccccc2S1(=O)=O.[Cu+2] | > 100 |  | > 100 | > 100 | > 100 | 45.8 | 49.5 | > 100 | > 100 | > 100 |  |  |  |  |  |  |  |  |  | 
